Results taken from US20040248775A1, “Methods for screening inhibitors of apoptosis” (Wyeth, priority 2003, published 2004).

Biological target: T1, His6-NALP1 NBS mutant (G339E, K340A) (Homo sapiens, UniProt Q9C000, G339E/K340A)
T1 construct: made in house; host or cells: COS-7 cells, transient transfection, Ni-NTA purification
T1 sequence (Q9C000 1-1473 G339E/K340A): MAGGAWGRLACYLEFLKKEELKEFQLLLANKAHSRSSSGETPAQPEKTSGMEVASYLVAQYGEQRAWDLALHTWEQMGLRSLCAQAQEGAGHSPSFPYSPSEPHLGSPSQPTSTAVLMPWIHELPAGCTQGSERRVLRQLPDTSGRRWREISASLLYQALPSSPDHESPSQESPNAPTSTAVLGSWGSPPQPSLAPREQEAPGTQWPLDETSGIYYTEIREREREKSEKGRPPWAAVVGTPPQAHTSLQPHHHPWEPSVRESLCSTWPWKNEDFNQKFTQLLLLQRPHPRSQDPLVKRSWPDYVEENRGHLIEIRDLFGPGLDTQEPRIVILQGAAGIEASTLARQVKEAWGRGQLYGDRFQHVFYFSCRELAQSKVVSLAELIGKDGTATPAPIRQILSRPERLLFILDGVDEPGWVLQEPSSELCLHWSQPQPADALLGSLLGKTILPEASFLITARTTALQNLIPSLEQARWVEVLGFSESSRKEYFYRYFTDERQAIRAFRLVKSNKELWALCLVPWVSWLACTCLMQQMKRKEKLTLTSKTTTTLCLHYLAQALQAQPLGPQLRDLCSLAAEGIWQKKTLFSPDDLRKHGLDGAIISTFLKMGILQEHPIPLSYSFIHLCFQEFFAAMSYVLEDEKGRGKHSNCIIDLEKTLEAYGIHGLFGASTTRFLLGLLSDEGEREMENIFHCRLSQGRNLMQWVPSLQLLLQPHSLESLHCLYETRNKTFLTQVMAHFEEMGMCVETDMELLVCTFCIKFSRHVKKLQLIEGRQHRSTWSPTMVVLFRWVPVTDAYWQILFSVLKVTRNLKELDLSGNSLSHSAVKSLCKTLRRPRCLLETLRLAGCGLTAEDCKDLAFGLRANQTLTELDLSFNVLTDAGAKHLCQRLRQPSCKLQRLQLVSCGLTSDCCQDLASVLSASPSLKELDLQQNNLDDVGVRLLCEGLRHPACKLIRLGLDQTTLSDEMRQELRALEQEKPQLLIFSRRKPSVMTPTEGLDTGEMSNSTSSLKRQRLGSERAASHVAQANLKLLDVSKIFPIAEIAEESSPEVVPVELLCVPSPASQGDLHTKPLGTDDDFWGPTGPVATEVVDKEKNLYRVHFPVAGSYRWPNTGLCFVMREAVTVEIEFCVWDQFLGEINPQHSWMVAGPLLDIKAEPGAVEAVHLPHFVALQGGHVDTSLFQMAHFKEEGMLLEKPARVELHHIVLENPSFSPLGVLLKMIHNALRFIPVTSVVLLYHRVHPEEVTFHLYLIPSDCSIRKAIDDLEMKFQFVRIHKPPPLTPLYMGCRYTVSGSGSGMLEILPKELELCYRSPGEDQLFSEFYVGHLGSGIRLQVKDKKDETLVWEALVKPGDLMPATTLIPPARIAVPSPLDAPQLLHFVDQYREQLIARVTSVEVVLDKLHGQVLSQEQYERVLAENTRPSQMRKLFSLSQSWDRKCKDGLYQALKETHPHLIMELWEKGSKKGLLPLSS
Experiment: Ni flashplate dATPα35S binding assay, NBS mutant His6-NALP1
Conditions: 8 nM dATPα35S displaced by non-radiolabeled dATP
Method: Production of purified NALP-Flashplate binding assay. NALP1 protein for in vitro binding assays was purified from transiently transfected cells. COS-7 cells were plated in DMEM, 10% fetal calf serum with amino acid supplements and antibiotics and allowed to grow to approximately 50% confluency. Large-scale preparations were performed in Cell Factories (NUNC) with approximately 600 μg plasmid DNA. Polyfect transfection reagent (Qiagen) was used as described by the manufacturer. After 24 hours, cells were collected by trypsinization, washed with fresh medium and then with PBS. Cells were lysed by resuspension in 10× cell volume of lysis buffer (140 mM NaCl, 0.1% Triton-X100, 0.1 mM DTT, 20 mM HEPES at pH 7.4 and protease inhibitor cocktail (Roche Diagnostics BmbH)). Lysates were centrifuged at approximately 7400×g for 30 minutes and supernatants were supplemented with glycerol to a final concentration of 10% and stored at −70° C. until purification. Protein concentrations were measured and samples normalized. Extracts were mixed with 1 ml Ni-NTA agarose equilibrated with the same buffer for 1 hour at 4° C. in the tube. Disposable columns were filled with the resin and flow-through collected. […] Reactions were stopped by aspirating solutions and washed once with Buffer B. Plates were counted in a Top Count scintillation counter (Packard).

## Nc1ncnc2c1ncn2[C@H]1C[C@H](O)[C@@H](COP(=O)(O)OP(=O)(O)OP(=O)(O)O)O1 [dATP]
  specific binding of dATP to NBS mutant NALP1: failed to achieve significant binding
